Assay: method code SF, from DOI: 10.1080/00021369.1987.10868331

logP | Structure (SMILES)
1.21 | Nc1nc(N)nc(SC(F)F)n1
3.28 | CCNc1nc(NCC)nc(SC(F)F)n1
3.8 | CCCNc1nc(NCC)nc(SC(F)F)n1
3.7 | CCCCNc1nc(NC)nc(SC(F)F)n1
4.42 | CCCCCNc1nc(NC)nc(SC(F)F)n1
3.91 | CNc1nc(NC(C)(C)C)nc(SC(F)F)n1
4.23 | CCNc1nc(NC(C)CC)nc(SC(F)F)n1 (stereo unspecified)
3.7 | CCNc1nc(NC(C)C)nc(SC(F)F)n1
3.27 | CNc1nc(NC(C)C)nc(SC(F)F)n1
4.71 | CCCCCNc1nc(NCC)nc(SC(F)F)n1

Further lines, the compound ahead of its results:

Structure (SMILES) | logP
CCCNc1nc(NC(C)C)nc(SC(F)F)n1 | 4.23
CCNc1nc(NC)nc(SC(F)F)n1 | 2.68
CCCCNc1nc(NC(C)C)nc(SC(F)F)n1 | 4.75
CCC(C)Nc1nc(NC)nc(SC(F)F)n1 (stereo unspecified) | 3.69
CNc1nc(N)nc(SC(F)F)n1 | 1.75
CCCNc1nc(NCCC)nc(SC(F)F)n1 | 4.45
CCCCCCNc1nc(NCC)nc(SC(F)F)n1 | 5.53
CCNc1nc(NC(C)(C)C)nc(SC(F)F)n1 | 4.57
CCC(C)Nc1nc(NC(C)C)nc(SC(F)F)n1 (stereo unspecified) | 4.55
CCCNc1nc(NC)nc(SC(F)F)n1 | 3.28
CC(C)Nc1nc(NC(C)(C)C)nc(SC(F)F)n1 | 4.7
CCCCCCCCNc1nc(NCC)nc(SC(F)F)n1 | 6.61
CC(C)Nc1nc(NC(C)C)nc(SC(F)F)n1 | 4.25
CNc1nc(NC)nc(SC(F)F)n1 | 2.31
CCCCNc1nc(NCC)nc(SC(F)F)n1 | 4.51
CCNc1nc(N)nc(SC(F)F)n1 | 2.29

— the SangsterLogP compilation
